Values of other authors in publication PMC9369419 (International Journal of Molecular Sciences, 2022).

Columns and labels:
Conditions in all cases: recombinant rat iGluR, mean ± SEM; cited from earlier work
GluK1 = molecular target: T1, GluK1 (Rattus norvegicus, UniProt P22756)
T1 construct: made in house; host or cells: Sf9 insect cells (membranes)

GluA2 = molecular target: T2, GluA2 (Rattus norvegicus, UniProt P19491)
T2 construct: made in house; host or cells: Sf9 insect cells (membranes)

GluK2 = molecular target: T3, GluK2 (Rattus norvegicus, UniProt P42260)
T3 construct: made in house; host or cells: Sf9 insect cells (membranes)
T3 sequence (P42260 32-908): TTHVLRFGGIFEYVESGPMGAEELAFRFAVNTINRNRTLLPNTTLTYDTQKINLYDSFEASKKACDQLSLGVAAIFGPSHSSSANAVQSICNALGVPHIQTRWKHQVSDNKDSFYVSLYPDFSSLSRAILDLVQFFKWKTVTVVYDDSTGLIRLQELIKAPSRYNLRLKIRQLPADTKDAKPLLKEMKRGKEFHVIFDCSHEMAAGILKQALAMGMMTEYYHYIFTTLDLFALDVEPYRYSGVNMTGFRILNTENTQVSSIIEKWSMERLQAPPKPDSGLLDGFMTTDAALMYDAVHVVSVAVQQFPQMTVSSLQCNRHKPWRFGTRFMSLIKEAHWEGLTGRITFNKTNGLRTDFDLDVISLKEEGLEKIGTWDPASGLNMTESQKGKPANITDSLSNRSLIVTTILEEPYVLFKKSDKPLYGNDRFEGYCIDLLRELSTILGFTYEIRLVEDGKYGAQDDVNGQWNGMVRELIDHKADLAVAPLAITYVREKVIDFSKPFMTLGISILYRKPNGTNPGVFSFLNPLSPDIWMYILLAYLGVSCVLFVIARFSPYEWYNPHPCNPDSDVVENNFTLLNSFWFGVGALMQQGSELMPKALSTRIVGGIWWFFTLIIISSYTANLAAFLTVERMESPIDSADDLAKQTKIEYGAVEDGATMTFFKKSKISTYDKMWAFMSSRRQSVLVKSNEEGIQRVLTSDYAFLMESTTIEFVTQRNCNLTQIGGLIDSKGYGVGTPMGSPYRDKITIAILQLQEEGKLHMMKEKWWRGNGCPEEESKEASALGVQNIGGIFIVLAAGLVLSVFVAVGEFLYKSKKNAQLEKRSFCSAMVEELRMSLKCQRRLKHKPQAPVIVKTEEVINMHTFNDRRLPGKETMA

GluK5 = molecular target: T4, GluK5 (Rattus norvegicus, UniProt Q63273)
T4 construct: made in house; host or cells: Sf9 insect cells (membranes)
T4 sequence (Q63273 15-979): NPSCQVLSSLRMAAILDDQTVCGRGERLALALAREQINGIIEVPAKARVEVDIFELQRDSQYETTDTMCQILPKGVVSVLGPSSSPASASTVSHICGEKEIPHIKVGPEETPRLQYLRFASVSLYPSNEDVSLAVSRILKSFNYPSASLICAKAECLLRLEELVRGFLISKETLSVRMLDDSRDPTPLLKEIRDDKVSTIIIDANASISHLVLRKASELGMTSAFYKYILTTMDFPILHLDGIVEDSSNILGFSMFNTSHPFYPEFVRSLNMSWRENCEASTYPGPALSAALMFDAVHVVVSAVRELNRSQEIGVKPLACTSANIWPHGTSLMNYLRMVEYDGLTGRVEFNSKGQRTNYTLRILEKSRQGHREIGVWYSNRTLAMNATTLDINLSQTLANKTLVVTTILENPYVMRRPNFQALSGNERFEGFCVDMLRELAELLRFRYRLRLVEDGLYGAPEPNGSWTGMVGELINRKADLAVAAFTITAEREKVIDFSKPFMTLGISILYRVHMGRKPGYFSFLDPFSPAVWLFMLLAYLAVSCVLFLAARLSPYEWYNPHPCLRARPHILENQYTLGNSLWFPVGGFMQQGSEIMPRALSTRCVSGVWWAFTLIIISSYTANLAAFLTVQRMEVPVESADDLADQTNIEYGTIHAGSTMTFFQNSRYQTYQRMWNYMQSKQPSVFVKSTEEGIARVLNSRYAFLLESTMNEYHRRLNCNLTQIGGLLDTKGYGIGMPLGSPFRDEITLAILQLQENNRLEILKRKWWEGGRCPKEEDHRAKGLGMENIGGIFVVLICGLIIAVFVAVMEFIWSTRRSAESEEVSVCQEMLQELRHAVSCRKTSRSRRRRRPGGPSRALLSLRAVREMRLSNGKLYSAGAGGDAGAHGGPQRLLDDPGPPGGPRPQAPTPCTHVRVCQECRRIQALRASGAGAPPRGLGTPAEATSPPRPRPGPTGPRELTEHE

GluK3 = molecular target: T5, GluK3 (Rattus norvegicus, UniProt P42264)
T5 construct: made in house; host or cells: Sf9 insect cells (membranes)
T5 sequence (P42264 32-919): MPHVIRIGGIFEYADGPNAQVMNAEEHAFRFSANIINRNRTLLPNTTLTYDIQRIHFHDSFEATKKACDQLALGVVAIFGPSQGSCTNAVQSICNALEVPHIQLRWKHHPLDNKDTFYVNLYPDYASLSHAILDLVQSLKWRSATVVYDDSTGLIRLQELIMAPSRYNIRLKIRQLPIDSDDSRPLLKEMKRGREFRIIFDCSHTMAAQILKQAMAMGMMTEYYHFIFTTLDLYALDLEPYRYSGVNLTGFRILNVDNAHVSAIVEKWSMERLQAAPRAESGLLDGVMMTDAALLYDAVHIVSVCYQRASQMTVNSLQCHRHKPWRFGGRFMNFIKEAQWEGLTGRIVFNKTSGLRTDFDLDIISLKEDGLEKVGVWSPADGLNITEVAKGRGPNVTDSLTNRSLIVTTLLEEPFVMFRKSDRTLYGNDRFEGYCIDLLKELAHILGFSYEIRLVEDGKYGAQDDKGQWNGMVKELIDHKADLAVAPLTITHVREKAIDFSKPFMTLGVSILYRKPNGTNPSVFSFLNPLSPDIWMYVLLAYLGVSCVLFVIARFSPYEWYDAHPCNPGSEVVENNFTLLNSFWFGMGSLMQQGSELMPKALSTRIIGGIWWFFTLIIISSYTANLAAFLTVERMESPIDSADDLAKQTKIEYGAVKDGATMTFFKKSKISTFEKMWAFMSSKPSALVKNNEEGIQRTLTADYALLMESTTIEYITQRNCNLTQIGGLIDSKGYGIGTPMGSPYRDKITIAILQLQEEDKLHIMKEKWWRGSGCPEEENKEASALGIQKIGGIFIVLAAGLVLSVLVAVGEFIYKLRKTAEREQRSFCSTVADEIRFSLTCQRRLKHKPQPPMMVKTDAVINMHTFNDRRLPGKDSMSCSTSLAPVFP

T1 sequence (P22756 31-949): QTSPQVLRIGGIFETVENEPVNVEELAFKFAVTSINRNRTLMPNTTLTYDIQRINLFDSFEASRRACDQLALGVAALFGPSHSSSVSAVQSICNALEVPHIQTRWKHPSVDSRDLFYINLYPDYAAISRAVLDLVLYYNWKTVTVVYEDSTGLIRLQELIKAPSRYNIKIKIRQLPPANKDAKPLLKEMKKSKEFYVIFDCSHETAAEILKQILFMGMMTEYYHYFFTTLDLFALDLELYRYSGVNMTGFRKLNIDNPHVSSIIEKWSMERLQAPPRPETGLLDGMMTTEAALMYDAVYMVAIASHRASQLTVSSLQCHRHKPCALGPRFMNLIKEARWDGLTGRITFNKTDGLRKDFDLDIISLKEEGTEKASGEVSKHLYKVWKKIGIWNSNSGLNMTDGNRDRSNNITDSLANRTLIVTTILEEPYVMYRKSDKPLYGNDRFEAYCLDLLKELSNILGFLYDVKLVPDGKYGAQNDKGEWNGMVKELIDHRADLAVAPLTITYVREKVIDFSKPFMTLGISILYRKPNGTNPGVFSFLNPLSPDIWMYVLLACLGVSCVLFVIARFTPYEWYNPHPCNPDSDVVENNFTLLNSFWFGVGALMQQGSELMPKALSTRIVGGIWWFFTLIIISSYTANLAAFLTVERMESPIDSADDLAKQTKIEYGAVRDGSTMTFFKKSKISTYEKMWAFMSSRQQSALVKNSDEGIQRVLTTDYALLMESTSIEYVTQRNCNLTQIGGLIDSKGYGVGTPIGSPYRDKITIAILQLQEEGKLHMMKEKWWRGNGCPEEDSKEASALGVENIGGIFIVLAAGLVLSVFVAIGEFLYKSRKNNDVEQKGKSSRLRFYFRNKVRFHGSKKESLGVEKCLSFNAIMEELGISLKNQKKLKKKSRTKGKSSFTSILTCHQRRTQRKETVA
T2 sequence (P19491 22-883): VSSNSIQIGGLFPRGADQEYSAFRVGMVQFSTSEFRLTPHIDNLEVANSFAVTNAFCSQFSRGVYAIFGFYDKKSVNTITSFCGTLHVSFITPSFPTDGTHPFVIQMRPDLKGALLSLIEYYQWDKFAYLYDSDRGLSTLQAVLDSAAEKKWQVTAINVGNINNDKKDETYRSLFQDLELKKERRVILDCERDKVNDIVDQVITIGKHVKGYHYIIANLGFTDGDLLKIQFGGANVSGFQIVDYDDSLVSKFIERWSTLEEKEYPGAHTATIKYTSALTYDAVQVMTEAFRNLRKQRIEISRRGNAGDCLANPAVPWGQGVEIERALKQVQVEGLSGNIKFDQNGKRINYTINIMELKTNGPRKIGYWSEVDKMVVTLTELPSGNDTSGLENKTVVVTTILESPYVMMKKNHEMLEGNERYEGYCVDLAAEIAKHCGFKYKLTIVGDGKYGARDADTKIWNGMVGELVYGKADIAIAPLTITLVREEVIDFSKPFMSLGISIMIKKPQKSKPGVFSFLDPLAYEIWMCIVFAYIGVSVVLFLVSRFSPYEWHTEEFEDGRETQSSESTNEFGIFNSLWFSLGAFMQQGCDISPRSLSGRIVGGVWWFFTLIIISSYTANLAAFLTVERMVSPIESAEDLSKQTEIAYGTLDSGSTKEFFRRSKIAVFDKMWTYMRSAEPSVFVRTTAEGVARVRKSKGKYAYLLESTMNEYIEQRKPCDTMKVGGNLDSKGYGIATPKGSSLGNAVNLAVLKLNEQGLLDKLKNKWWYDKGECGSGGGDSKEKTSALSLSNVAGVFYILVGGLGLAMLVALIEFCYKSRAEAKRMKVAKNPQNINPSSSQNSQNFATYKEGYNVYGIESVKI

Structure (SMILES)	Ki (GluK1)	Ki (GluA2)	Ki (GluK2)	Ki (GluK5)	Ki (GluK3)
O=C(Nn1c(=O)c(=O)[nH]c2cc(C#Cc3ccccc3)ccc21)c1ccccc1 [Compound 1, N-(2,3-dioxo-6-(phenylethynyl)-3,4-dihydroquinoxalin-1(2H)-yl)benzamide]	> 100 µM	24 ± 6 µM	~100 µM	> 100 µM	
O=c1[nH]c2cc([N+](=O)[O-])c([N+](=O)[O-])cc2[nH]c1=O [DNQX]	0.65 ± 0.03 µM		2.1 ± 0.3 µM	7.1 ± 0.9 µM	0.36 ± 0.03 µM
